The record followed here is publication PMC7612312 (Nature chemical biology, 2019).

The test system of the assay is clathrin heavy chain (CHC; antibody recognises both CHC1 and CHC2). Description: CETSA. In kind it is biochemical, Arabidopsis thaliana.

A word on the EC50: it is the midpoint of the concentration-response curve.

Structures are written as SMILES.

As to `O=S(=O)(Nc1ccccc1)c1ccc(Br)s1` [compound 14, ES9-17], the response was half-maximal at 123 ± 1.13 µM (EC50).
